Measured values taken from patent US11466044B2 (WAYNE STATE UNIVERSITY, priority 2017, dated 2022).
In brackets after ≈: the same amount, converted by molar mass. Read-outs that look alike come from different tables or passages of the source.

Legend:
[1] = tested on: Acinetobacter baumannii pittii AG225; test: MIC by broth microdilution, Acinetobacter baumannii; assay type: cell-based; conditions: strain AG225 Acinetobacter baumannii pittii
[2] = tested on: Enterobacter cloacae AG290; test: MIC by broth microdilution, Enterobacter cloacae; assay type: cell-based; conditions: strain AG290 Enterobacter cloacae; for MIC: read-out: MIC AG290 E. cloacae
[3] = tested on: Klebsiella pneumonia AG215; test: MIC by broth microdilution, Klebsiella pneumonia; assay type: cell-based; conditions: strain AG215 Klebsiella pneumonia; for MIC: Klebsiella pneumoniae, read-out: MIC AG215 K. pneumon
P aeruginosa = test: MIC by broth microdilution, P aeruginosa isolates; assay type: cell-based, Pseudomonas aeruginosa; conditions: for MIC: read-out: MIC AG220 P. aerugin
E coli wild type = test: MIC by broth microdilution, wild type E coli; assay type: cell-based; conditions: for MIC: Escherichia coli
MRSA = test: MIC by broth microdilution, MRSA isolates; assay type: cell-based; conditions: Table 1 (Example 2); for MIC50 MRSA AG38: strain AG38
M. smegmatis SZ380 = test: MIC by broth microdilution, M. smegmatis; conditions: for MIC: Mycolicibacterium smegmatis, SZ380, read-out: MIC M. smegmatis SZ380 WT, SZ380 WT
[4] = tested on: wild type bacterial ribosomes; test: in-vitro translation assay, bacterial ribosomes; assay type: biochemical; conditions: bacterial ribosome; Table 3 (Example 2); read-out: IC50 Bac
Source text: (§1) The antiribosomal activity of these compounds was investigated with cell-free translation assays using both wild type bacterial ribosomes and hybrid ribosomes carrying eukaryotic decoding A sites enabling the prediction of selectivity.

[5] = tested on: mitochondrial ribosome (human chimeric); assay type: biochemical; conditions: mitochondrial; Table 3 (Example 2); read-out: IC50 Mit
Source text: as §1

[6] = tested on: cytosolic ribosome (human chimeric); assay type: biochemical; conditions: cytosolic; Table 3 (Example 2); read-out: IC50 Cyt
Source text: as §1

[7] = tested on: E coli carrying specific resistance determinants; test: MIC by broth microdilution, E coli carrying specific resistance determinants; assay type: cell-based; conditions: for MIC: Escherichia coli
M. abscessus = test: MIC by broth microdilution, M. abscessus; assay type: cell-based; conditions: for MIC: Mycobacteroides abscessus
[8] = strain AG220 Pseudomonas aeruginosa ATCC27853
[9] = ATCC25922, strain AG212 E. coli (ATCC25922), read-out: MIC AG212 E. coli
[10] = read-out: MIC E. coli pGB2armA armA
[11] = read-out: MIC E. coli pH434 AAC(2′)-Ib
[12] = WT, Table 5 (Example 3), read-out: MIC E. coli WT
[13] = ATCC19977, ATCC 19977 WT, Table 5 (Example 3), read-out: MIC M. abscessus ATCC 19977 WT
[14] = read-out: MIC M. abscessus clinical isolate
[15] = read-out: MIC M. abscessus engineered Δeis2

## NC[C@@H]1O[C@H](O[C@@H]2C(O)[C@H](O[C@@H]3C(O)[C@H](N)CC(N)[C@H]3O[C@H]3OC4C(O)CCCO[C@H]4[C@H](O)C3N)O[C@@H]2CO)C(N)C(O)[C@@H]1O (stereo partly drawn) [Compound 199]
[1]
  MIC: > 32 µg/mL
[2]
  MIC: > 32 µg/mL
[3]
  MIC: 32 µg/mL (≈ 48.8 µM)
P aeruginosa; [8]
  MIC: > 32 µg/mL
E coli wild type; [9]
  MIC: > 32 µg/mL

## CCC(O)C1OC(OC2C(N)CC(N)C(O)C2OC2OC(CO)C(OC3OC(CN)C(O)C(O)C3N)C2O)C(N)C(O)C1O (stereo not drawn) [Compound 189]
[1]
  MIC AG225 A. baumannii: 4 to 8 µg/mL
[2]
  MIC AG290 E. cloacae: 2 to 4 µg/mL
[3]
  MIC AG215 K. pneumon: 2 µg/mL (≈ 3.11 µM)
MRSA
  MIC50 MRSA AG38: 4 to 8 µg/mL
P aeruginosa; [8]
  MIC AG220 P. aerugin: >64 µg/mL
E coli wild type; strain AG212 E. coli (ATCC25922)
  MIC AG212 E. coli: 8 µg/mL (≈ 12.4 µM)

## CC1CC(N)C2O[C@H](O[C@@H]3C(N)C[C@@H](N)C(O)[C@H]3O[C@@H]3O[C@H](CO)[C@H](O[C@H]4O[C@@H](CN)[C@@H](O)C(O)C4N)C3O)C(N)[C@@H](O)[C@@H]2O1 (stereo partly drawn) [Compound 150, 4-O-(2′,6′-Diamino-4′,8′-anhydro-2′,6′,7′,9′-tetradeoxy-D-erythro-α-D-gluco-nonapyranosyl)-5-O-(β-paramobiosyl)-2-deoxystreptamine.6AcOH]
M. smegmatis SZ380; strain SZ380 Mycobacterium smegmatis
  MIC SZ380 M. smegmatis: 16 to 32 µg/mL
[4]
  IC50: 0.48 µM
MRSA
  MIC50 MRSA AG38: 128 µg/mL (≈ 196 µM)
MRSA; strain AG39
  MIC50 MRSA AG39: 128 µg/mL (≈ 196 µM)
MRSA; strain AG42
  MIC50 MRSA AG42: 128 µg/mL (≈ 196 µM)
MRSA; strain AG44
  MIC50 MRSA AG44: 128 µg/mL (≈ 196 µM)
P aeruginosa; strain AG31, Table 1 (Example 2)
  MIC50 P aeruginosa AG31: >128 µg/mL
P aeruginosa; strain AG32, Table 1 (Example 2)
  MIC50 P aeruginosa AG32: >128 µg/mL
P aeruginosa; strain AG33, Table 1 (Example 2)
  MIC50 P aeruginosa AG33: >128 µg/mL
P aeruginosa; strain AG86, Table 1 (Example 2)
  MIC50 P aeruginosa AG86: >128 µg/mL
[5]
  IC50: 4.1 µM
[6]
  IC50: 12 µM
E coli wild type; BM13 (AG06) wt, Table 2A (Example 2)
  MIC50 E coli BM13 (AG06) wt: 64 to 128 µg/mL
E coli wild type; WT, Table 3 (Example 2)
  MIC WT: 64 to 128 µg/mL
E coli wild type; pH430 WT, Table 2B (Example 2)
  MIC50 E coli pH430 WT: 64-128 μg/ml
E coli wild type; strain AG01, Table 1 (Example 2)
  MIC50 E coli AG01: >128 µg/mL
E coli wild type; strain AG03, Table 1 (Example 2)
  MIC50 E coli AG03: >128 µg/mL
E coli wild type; strain AG55, Table 1 (Example 2)
  MIC50 E coli AG55: >128 µg/mL

## CCC[C@@H]1C(CNCCO)O[C@H](O[C@@H]2C(N)C[C@@H](N)C(O)[C@H]2O[C@@H]2O[C@H](CNCCO)[C@H](O[C@H]3OC(CN)[C@@H](O)C(O)C3N)C2O)[C@@H](N)C1O (stereo partly drawn) [Compound 193]
[1]
  MIC: 32 µg/mL (≈ 44 µM)
[2]
  MIC: 2 µg/mL (≈ 2.75 µM)
[3]
  MIC: 2 µg/mL (≈ 2.75 µM)
P aeruginosa; [8]
  MIC: > 64 µg/mL
E coli wild type; [9]
  MIC: 4 µg/mL (≈ 5.5 µM)

## gentamicin [reference compound]
[7]; AG106 AAC(2′)-Ia, Table 5 (Example 3)
  MIC E. coli AG106 AAC(2′)-Ia: 2 to 4 µg/mL
[7]; pGB2armA armA, Table 5 (Example 3)
  MIC E. coli pGB2armA armA: >128 μg/ml
M. smegmatis SZ380; SZ380 WT, Table 5 (Example 3)
  MIC M. smegmatis SZ380 WT: 1 µg/mL
E coli wild type; WT, Table 5 (Example 3)
  MIC E. coli WT: 0.5 µg/mL
M. abscessus; ATCC 19977 WT, Table 5 (Example 3)
  MIC M. abscessus ATCC 19977 WT: 2 to 4 µg/mL
M. abscessus; engineered Δeis2, Table 5 (Example 3)
  MIC M. abscessus engineered Δeis2: 2 µg/mL

## NCC1O[C@H](O[C@@H]2C(O)[C@H](O[C@@H]3C(O)[C@H](N)CC(N)[C@H]3O[C@H]3OC(CO)[C@@H](CC(O)CO)C(O)[C@@H]3N)O[C@@H]2CO)C(N)C(O)[C@@H]1O (stereo partly drawn) [Compound 198]
[1]
  MIC: 8 µg/mL (≈ 11.9 µM)
[2]
  MIC: 4 µg/mL (≈ 5.94 µM)
[3]
  MIC: 2 to 4 µg/mL (≈ 2.97 to 5.94 µM)
P aeruginosa; [8]
  MIC: 16 µg/mL (≈ 23.7 µM)
E coli wild type; [9]
  MIC: 8 µg/mL (≈ 11.9 µM)

## CN[C@@H]1[C@@H](O)[C@@H](O[C@@H]2[C@@H](O)[C@H](O[C@H]3OC(CNCCO)=CC[C@H]3N)[C@@H](N)C[C@H]2NC(=O)[C@@H](O)CCN)OC[C@]1(C)O [PLZ, plazomicin, reference compound]
[7]; read-out: MIC E. coli AG106 AAC(2′)-Ia
  MIC: 8 to 16 µg/mL (≈ 13.5 to 27 µM)
[7]; [10]
  MIC: > 128 µg/mL
[7]; [11]
  MIC: 8 µg/mL (≈ 13.5 µM)
M. smegmatis SZ380; Table 5 (Example 3)
  MIC: 0.25 µg/mL (≈ 0.422 µM)
E coli wild type; [12]
  MIC: 0.5 to 1 µg/mL (≈ 0.844 to 1.69 µM)
M. abscessus; [13]
  MIC: 1 µg/mL (≈ 1.69 µM)
M. abscessus; [14]
  MIC: 4 µg/mL (≈ 6.75 µM)
M. abscessus; [15]
  MIC: 1 µg/mL (≈ 1.69 µM)

## CCNC1[C@@H](OC2C(N)CC(N)[C@@H](O)[C@H]2O[C@@H]2O[C@H](CO)[C@H](O)C2O)OC(CN)[C@@H](O)[C@@H]1O (stereo partly drawn) [Compound 037]
[7]; [10]
  MIC: 64 to 128 µg/mL (≈ 133 to 265 µM)
[7]; [11]
  MIC: 32 µg/mL (≈ 66.3 µM)
M. smegmatis SZ380; Table 5 (Example 3)
  MIC: 64 µg/mL (≈ 133 µM)
E coli wild type; [12]
  MIC: 16 to 32 µg/mL (≈ 33.2 to 66.3 µM)
M. abscessus; [13]
  MIC: 128 µg/mL (≈ 265 µM)
M. abscessus; [14]
  MIC: > 128 µg/mL
M. abscessus; [15]
  MIC: 32 µg/mL (≈ 66.3 µM)
